Measurements published in publication PMC9106035, “Synthesis, X-ray Structure and Biological Studies of New Self-Assembled Cu(II) Complexes Derived from s-Triazine Schiff Base Ligand” (Molecules, 2022).
pIC50: −log10 of the molar value.

Tests used:
[1] = tested on: lung carcinoma A-549 cell line; assay: Anticancer activity, MTT viability assay; type: cell-based; settings: for Inhibitory % / Viability %: A-549; for SI = CC50/IC50: CC50 (MRC-5) / IC50 (A-549)
Experimental: The studied compounds were examined for their anticancer activity against the lung carcinoma A-549 cell line.
(§1) Method S4 Evaluation of Cytotoxic activity
(§2) The cells were propagated in Dulbecco’s modified Eagle’s medium (DMEM) supplemented with 10% heat-inactivated fetal bovine serum, 1 % L-glutamine, HEPES buffer and 50µg/mL Gentamycin. All cells were maintained at 37 °C in a humidified atmosphere with 5% CO2 and were subcultured tw o times a week.
(§3) Cytotoxicity evaluation using viability assay
(§4) For cytotoxicity assay, the cells were seeded in 96-well plate at a cell concentration of 1×10^4 cells per well in 100µl of growth medium. Fresh medium containing different concentrations of the test sample was added after 24 h of seeding. Serial two-fold dilutions of the tested chemical compound were added to confluent cell monolayers dispensed into 96-well, flat-bottomed microtiter plates (Falcon, NJ, USA) using a multichannel pipette. The microtiter plates were incubated at 37 °C in a humidified incubator with 5% CO2 for a period of 24 h. Three wells were used for each concentration of the test sample. Control cells were incubated without test sample and with or without DMSO. The little percentage of DMSO present in the […]
(§5) cells for at 37°C, for 24 h, the viabl e cells yield was determined by the MTT test.
(§6) Briefly, the media was removed from the 96 well plate and replaced with 100 µL of fresh culture DMEM m edium without phenol red then 10 µL of the 12 mM MTT stock solution (5 mg of MTT in 1 mL of PBS) to each well including the untreated controls. The 96 well plates were then incubated at 37°C and 5% CO2 for 4 hours. An 85 µL aliquot of the media was removed from t he wells, and 50 µL of DMSO was added to each well and mixed thoroughly with the pipette and incubated at 37°C for 10 min. Then, the optical density was measured at 590 nm with the microplate reader (SunRise, TECAN, Inc, USA) to determine the number of viable cells and the percentage of viability was calculat ed as [(ODt/ODc)]x100% where ODt i s the mean optical density of wells treated with the tested s ample and ODc is the mean optical density of untreated cells. The relation between surviving cells and drug concentration is plotted to get the survival curve of each tumor cell line after treatment with the specified compound. The 50% inhibitory concentration (IC50), the concentration required to cause t oxic effects in 50% of intact cells, was estimated from graphic plots of the dose response curve for each conc. using Graphpad Prism software (San Diego, […]

[2] = DPPH radical scavenging assay; type: biochemical; settings: for IC50 (DPPH scavenging): antioxidant activity
Experimental: The studied Cu(II) complexes and the free ligands were assessed for their antioxidant activity levels using an α,α-diphenyl-β-picrylhydrazyl (DPPH) scavenging assay, and the results are given in Table 7. […] The results indicated better antioxidant activity for DMAT than for DMOHT, indicating the effect of the substituent at the phenyl moiety on the antioxidant activity level of the free ligand. […] On the other hand, the Cu(II) complexes have improved levels of antioxidant activity compared to the free ligands.
Method S3 DPPH Radical Scavenging Activity:
Freshly prepared (0.004 %w/v) methanol solution of 2,2-diphenyl-1-pi crylhydrazyl (DPPH) radical was prepared and stored at 10 °C in dark place. A methanolic solution of the test compound was prepared using the same procedure. A 40 uL aliquot of the methanol solution was added to 3mL of DPPH solution. Absorbance measurements were recorded immediately with a UV-visible spectrophotometer (Milton Roy, Spectronic 1201). The decrease in absorbance at 515 nm was determined continuously, with data being recorded at 1 min intervals until the absorbance stabilized (16 min). The absorbance of the DPPH radical without antioxidant (control) and the reference compound ascorbic acid were also measured.
All the determinations were performed in three replicates and averaged. The percentage inhibition (PI) of the DPPH radical was calculated according to the […]
PI = [{(AC- AT)/ AC} x 100] (1)
Where AC = Absorbance of the control at t = 0 min and AT = absorbance of the sample+DPPH at t = 16 min. The 50% inhibitory concentration (IC50), the concentration required t o inhibit DPPH radical by 50%, was estimated from graphic plots of the dose respons e curve.

[3] = tested on: normal human lung fibroblast MRC-5 cells; assay: Cytotoxic activity on normal cells, MTT viability assay; type: cell-based; settings: for Inhibitory % / Viability %: MRC-5; for CC50: MRC-5 cells, 24 h, MTT
Experimental: In this regard, the selectivity index (SI) was calculated as the ratio of cytotoxic effect on the normal cell line to the cytotoxic effect on the cancer cell line.
as §1, §2, §3, §4, §5, §6

[4] = sample conc. 120.0 µM, Table S8
[5] = sample conc. 239.9 µM, Table S8
[6] = sample conc. 479.8 µM, Table S8
[7] = sample conc. 959.6 µM, Table S8
[8] = sample conc. 15.0 µM, Table S13
[9] = sample conc. 29.9 µM, Table S13
[10] = sample conc. 60.0 µM, Table S13
[11] = sample conc. 120.0 µM, Table S13
[12] = sample conc. 239.9 µM, Table S13
[13] = sample conc. 479.8 µM, Table S13
[14] = sample conc. 959.6 µM, Table S13
[15] = sample conc. 119.3 µM, Table S9
[16] = sample conc. 238.6 µM, Table S9
[17] = sample conc. 477.1 µM, Table S9
[18] = sample conc. 954.2 µM, Table S9
[19] = sample conc. 14.9 µM, Table S14
[20] = sample conc. 29.8 µM, Table S14
[21] = sample conc. 59.6 µM, Table S14
[22] = sample conc. 119.3 µM, Table S14
[23] = sample conc. 238.6 µM, Table S14
[24] = sample conc. 477.1 µM, Table S14
[25] = sample conc. 954.2 µM, Table S14

## CC(=NNc1nc(N2CCOCC2)nc(N2CCOCC2)n1)c1ccccc1[O-].CC(=O)[O-].[Cu+2] [Complex 2, [Cu(DMOT)(CH3COO)]]
[1]; sample conc. 1.9 µM, Table S8
  Inhibitory %: 0%
  Viability %: 100%
[1]; sample conc. 3.8 µM, Table S8
  Inhibitory %: 2.84%
  Viability %: 97.16%
[1]; sample conc. 7.5 µM, Table S8
  Inhibitory %: 10.59%
  Viability %: 89.41%
[1]; sample conc. 15.0 µM, Table S8
  Inhibitory %: 21.88%
  Viability %: 78.12%
[1]; sample conc. 29.9 µM, Table S8
  Inhibitory %: 40.57%
  Viability %: 59.43%
[1]; sample conc. 60.0 µM, Table S8
  Inhibitory %: 58.63%
  Viability %: 41.37%
[1]; [4]
  Inhibitory %: 71.3%
  Viability %: 28.70%
[1]; [5]
  Inhibitory %: 83.57%
  Viability %: 16.43%
[1]; [6]
  Inhibitory %: 92.15%
  Viability %: 7.85%
[1]; [7]
  Inhibitory %: 96.38%
  Viability %: 3.62%
[1]
  SI = CC50/IC50: 0.72
[2]; Conc. 2.5 μg/mL
  DPPH Scavenging %: 9.39%
[2]; Conc. 5 μg/mL
  DPPH Scavenging %: 17.66%
[2]; Conc. 10 μg/mL
  DPPH Scavenging %: 36.52%
[2]; Conc. 20 μg/mL
  DPPH Scavenging %: 49.08%
[2]; Conc. 40 μg/mL
  DPPH Scavenging %: 67.84%
[2]; Conc. 80 μg/mL
  DPPH Scavenging %: 78.62%
[2]; Conc. 160 μg/mL
  DPPH Scavenging %: 83.14%
[2]; Conc. 320 μg/mL
  DPPH Scavenging %: 88.03%
[2]; Conc. 640 μg/mL
  DPPH Scavenging %: 92.15%
[2]; Conc. 1280 μg/mL
  DPPH Scavenging %: 94.54%
[2]
  IC50 (DPPH scavenging): 20.93 ± 0.91 µg/mL
[3]; sample conc. 1.9 µM, Table S13
  Inhibitory %: 0%
  Viability %: 100%
[3]; sample conc. 3.8 µM, Table S13
  Inhibitory %: 0%
  Viability %: 100%
[3]; sample conc. 7.5 µM, Table S13
  Inhibitory %: 1.29%
  Viability %: 98.71%
[3]; [8]
  Inhibitory %: 7.13%
  Viability %: 92.87%
[3]; [9]
  Inhibitory %: 13.76%
  Viability %: 86.24%
[3]; [10]
  Inhibitory %: 32.82%
  Viability %: 67.18%
[3]; [11]
  Inhibitory %: 57.65%
  Viability %: 42.35%
[3]; [12]
  Inhibitory %: 72.02%
  Viability %: 27.98%
[3]; [13]
  Inhibitory %: 84.79%
  Viability %: 15.21%
[3]; [14]
  Inhibitory %: 94.26%
  Viability %: 5.74%
[3]
  CC50: 101 µM

## CC(=NNc1nc(N2CCOCC2)nc(N2CCOCC2)n1)c1ccccc1[O-].O=[N+]([O-])[O-].[Cu+2] [Complex 3, [Cu(DMOT)(NO3)]]
[1]; sample conc. 1.9 µM, Table S9
  Inhibitory %: 0%
  Viability %: 100%
[1]; sample conc. 3.8 µM, Table S9
  Inhibitory %: 1.37%
  Viability %: 98.63%
[1]; sample conc. 7.4 µM, Table S9
  Inhibitory %: 7.25%
  Viability %: 92.75%
[1]; sample conc. 14.9 µM, Table S9
  Inhibitory %: 19.54%
  Viability %: 80.46%
[1]; sample conc. 29.8 µM, Table S9
  Inhibitory %: 32.81%
  Viability %: 67.19%
[1]; sample conc. 59.6 µM, Table S9
  Inhibitory %: 50.72%
  Viability %: 49.28%
[1]; [15]
  Inhibitory %: 63.38%
  Viability %: 36.62%
[1]; [16]
  Inhibitory %: 76.06%
  Viability %: 23.94%
[1]; [17]
  Inhibitory %: 88.72%
  Viability %: 11.28%
[1]; [18]
  Inhibitory %: 95.13%
  Viability %: 4.87%
[1]; A-549 cells, 24 h, MTT
  pIC50: 4.23
[1]
  SI = CC50/IC50: 2.96
[1]; listed as 3
  SI = CC50/IC50: 2.97
[2]; Conc. 2.5 μg/mL
  DPPH Scavenging %: 11.46%
[2]; Conc. 5 μg/mL
  DPPH Scavenging %: 18.73%
[2]; Conc. 10 μg/mL
  DPPH Scavenging %: 32.95%
[2]; Conc. 20 μg/mL
  DPPH Scavenging %: 51.32%
[2]; Conc. 40 μg/mL
  DPPH Scavenging %: 68.9%
[2]; Conc. 80 μg/mL
  DPPH Scavenging %: 81.47%
[2]; Conc. 160 μg/mL
  DPPH Scavenging %: 85.92%
[2]; Conc. 320 μg/mL
  DPPH Scavenging %: 90.81%
[2]; Conc. 640 μg/mL
  DPPH Scavenging %: 94.29%
[2]; Conc. 1280 μg/mL
  DPPH Scavenging %: 95.76%
[2]
  IC50 (DPPH scavenging): 19.31 ± 0.73 µg/mL
[3]; sample conc. 1.9 µM, Table S14
  Inhibitory %: 0%
  Viability %: 100%
[3]; sample conc. 3.8 µM, Table S14
  Inhibitory %: 0%
  Viability %: 100%
[3]; sample conc. 7.4 µM, Table S14
  Inhibitory %: 0%
  Viability %: 100%
[3]; [19]
  Inhibitory %: 1.37%
  Viability %: 98.63%
[3]; [20]
  Inhibitory %: 10.83%
  Viability %: 89.17%
[3]; [21]
  Inhibitory %: 23.08%
  Viability %: 76.92%
[3]; [22]
  Inhibitory %: 42.86%
  Viability %: 57.14%
[3]; [23]
  Inhibitory %: 58.72%
  Viability %: 41.28%
[3]; [24]
  Inhibitory %: 79.35%
  Viability %: 20.65%
[3]; [25]
  Inhibitory %: 92.46%
  Viability %: 7.54%
[3]
  CC50: 173 µM
